Measured values published in patent US20240226117A1, “TREATMENT OF CONGENITAL ADRENAL HYPOPLASIA” (ReveraGen BioPharma, Inc., priority 2021, published 2024).
Where two headings read alike, the source gives them in different places.

Tests used:
DMD participants [1] = experiment: Prespecified safety evaluation: height percentile for age and BMI z-score; assay type: in vivo, human; settings: for Mean BMI z-score, change from baseline (SD): 0.75 mg/kg/day
Method: As with the […] comparators, group-matching criteria were prespecified in the iSAP, and 2 independent statisticians carried out the participant matching. […] There was no corresponding 12-month assessment in vamorolone-treated participants. (Assessments of vamorolone-treated trial participants were 0, 3, 6, and 18 months). Standing height and weight were assessed at each study visit. Height z-score, body mass index (BMI: kg/m^2), and BMI z-score were calculated centrally. AE reporting was done per protocol in the vamorolone trials. The current study is the first to evaluate the longer-term tolerability, efficacy, and safety of vamorolone in DMD. […] Given the variable timing of dose escalations, it was prespecified that initial analyses of drug-related efficacy and safety would be limited to those participants who had 18 months of treatment with 2.0 mg/kg/day vamorolone or more (dose group C+dose group D: n=23). Outcomes for these participants were compared to a group-matched cohort from the […] over 18 months (corticosteroid-naïve, n=19: corticosteroid-treated, n=68). Participants were matched for age and treatment period (+1 month), matching criteria were prespecified in the statistical analysis plan. Two independent statisticians carried out the matching. […] Participants in the corticosteroid-treated […] group were treated for at least 18 months, but the total duration, dose, and regimens varied. Statistical analyses were done on paired longitudinal outcome data using an analysis of covariance (ANCOVA) approach with change from baseline (VBP15-002) to month 18 (midpoint of VBP15-LTE). Baseline response and age were included as covariates. For the vamorolone-treated participants, age was calculated as (date of informed consent minus birthdate)/365.25. For the DNHS participants, age was calculated as (date of baseline visit used minus birthdate)/365.25. The baseline visit for a DNHS participant was the first visit. […] Timed function tests were analyzed as velocity scores to limit the impact of participants who could not perform the test (velocity=0). Velocity measures are variance-stabilizing transformations, suppressing extreme raw outliers from raw values in seconds; these help with distributional assumptions of the statistical models/tests used. Raw data (seconds) are also reported. Velocity scores for […] (event/second), TTRW (meters/second), and […] (event/second) were inputted as 0 at the first response missing due to inability to perform the test. All other data were observed values only, without imputation. No adjustments for multiplicity on inferential statistics were specified in the iSAP.

ambulant boys with DMD [2] = experiment: VBP15-004 growth (height Z score); assay type: in vivo, human; settings: prednisone 0.75 mg/kg/day
ambulant boys with DMD [3] = settings: male, human, in vivo, 24 weeks
[4] = target: T1, mineralocorticoid receptor (Homo sapiens, UniProt P08235); settings: background statement; cited from earlier work
T1 sequence (P08235 1-984): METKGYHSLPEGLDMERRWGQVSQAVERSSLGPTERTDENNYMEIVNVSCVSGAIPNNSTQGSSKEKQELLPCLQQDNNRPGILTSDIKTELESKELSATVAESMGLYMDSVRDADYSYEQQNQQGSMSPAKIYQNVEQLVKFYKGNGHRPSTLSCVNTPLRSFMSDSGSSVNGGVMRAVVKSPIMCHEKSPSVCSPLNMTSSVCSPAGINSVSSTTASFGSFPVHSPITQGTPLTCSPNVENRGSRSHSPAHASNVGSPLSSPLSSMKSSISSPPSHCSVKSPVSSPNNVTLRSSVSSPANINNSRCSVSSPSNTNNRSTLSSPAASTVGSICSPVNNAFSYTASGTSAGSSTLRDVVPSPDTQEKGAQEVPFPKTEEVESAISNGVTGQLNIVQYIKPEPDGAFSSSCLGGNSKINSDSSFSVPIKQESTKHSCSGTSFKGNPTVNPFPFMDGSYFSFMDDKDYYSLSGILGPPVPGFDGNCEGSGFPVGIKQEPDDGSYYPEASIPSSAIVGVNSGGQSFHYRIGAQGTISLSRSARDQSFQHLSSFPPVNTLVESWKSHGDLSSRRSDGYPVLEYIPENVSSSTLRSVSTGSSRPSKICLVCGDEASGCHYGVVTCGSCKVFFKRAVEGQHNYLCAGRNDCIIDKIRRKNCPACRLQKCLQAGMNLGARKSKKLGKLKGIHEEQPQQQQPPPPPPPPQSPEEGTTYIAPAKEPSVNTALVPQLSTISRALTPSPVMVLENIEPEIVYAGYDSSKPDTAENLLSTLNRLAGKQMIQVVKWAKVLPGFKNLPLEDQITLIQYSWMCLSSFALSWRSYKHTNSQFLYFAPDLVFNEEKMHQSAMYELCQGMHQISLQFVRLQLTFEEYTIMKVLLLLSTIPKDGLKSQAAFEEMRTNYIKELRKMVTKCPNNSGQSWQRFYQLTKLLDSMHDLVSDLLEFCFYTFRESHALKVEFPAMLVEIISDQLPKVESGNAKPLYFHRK

ambulant boys with DMD [5] = experiment: VBP15-004 adverse events and behavior AESIs; settings: PDN 0.75 mg, N = 31, 24 weeks
DMD participants [6] = settings: cited from earlier work
DMD subjects = settings: cited from earlier work
[7] = CINRG prednisone trial, daily 0.75 mg/kg/day, 12 months
[8] = vamorolone 18-month treatment versus prednisone trial 12-month treatment, ANCOVA
[9] = CINRG DNHS, deflazacort n = 94, prednisone n = 80
[10] = Griggs et al. 2016, 12-month trial, 0.9 mg/kg/day deflazacort (n = 68), 0.75 mg/kg/day prednisone (n = 63)

C[C@]12C=CC(=O)C=C1CC[C@@H]1[C@@H]2C(=O)C[C@@]2(C)[C@H]1CC[C@]2(O)C(=O)CO [Prednisone, prednisone, reference compound]
Mean BMI z-score, value (SD) at 12 months of treatment (DMD participants [1]; [7]): 1.068 (1.05)
Mean height percentile for age, change from baseline (SD) (DMD participants [1]; [7]): −3.76 (10.44)
Mean height percentile for age, value (SD) at 12 months of treatment (DMD participants [1]; [7]): 26.14 (24.21)
Mean BMI z-score, change from baseline (SD) (DMD participants [1]; [7]): 0.459 (0.407)
Mean BMI z-score, change from baseline (SD) (DMD participants [1]; CINRG prednisone trial, daily 0.75 mg/kg/day, 12 months, listed as prednisone): 0.46
Mean BMI z-score, LS mean difference (SE) (DMD participants [1]; [8]): 0.066 (0.193)
Mean height percentile for age, LS mean difference (SE) (DMD participants [1]; [8]): 10.37 (3.86)
change in height Z scores from baseline to Week 24 (ambulant boys with DMD [2]): growth deceleration
clinically relevant psychiatric events, subjects (ambulant boys with DMD [3]): 19.4%
incidence of behavior problems (ambulant boys with DMD [3]): 32.3%
moderate/severe behavior problems, subjects (ambulant boys with DMD [3]): 22.6%
activity at the mineralocorticoid receptor [4]: agonists
Any Behavior AESI, moderate/severe: F (AE count) (ambulant boys with DMD [5]): 8

CC(=O)OCC(=O)[C@@]12N=C(C)O[C@@H]1C[C@H]1[C@@H]3CCC4=CC(=O)C=C[C@]4(C)[C@H]3[C@@H](O)C[C@@]12C [Deflazacort, deflazacort]
Incidence of physician-reported Cushingoid (DMD participants [6]; [9]): 72%
Incidence of physician-reported behavior change (DMD participants [6]; [9]): 33%
Incidence of physician-reported weight gain (DMD participants [6]; [9]): 63%
Incidence of physician-reported Cushingoid (DMD participants [6]; [10]): 60.3%
Incidence of physician-reported behavior change (DMD participants [6]; [10]): 9%
Incidence of physician-reported hypertrichosis/hirsutism (DMD participants [6]; [10]): 35%
Incidence of physician-reported weight gain (DMD participants [6]; [10]): 27.9%
activity at the mineralocorticoid receptor [4]: agonists
LS Mean change in height percentiles for age (DMD subjects; DMD children treated with deflazacort, N = 40, 12 months treatment): −11.4
change in height percentile over a 12-month treatment period (DMD subjects; Griggs et al. 2016, DMD): −11.43 percentile
